± gives the expanded uncertainty stated by the source.
Test: excess molar enthalpy (molar enthalpy of mixing); xn = mol fraction of the nth substance listed
Conditions: 323.15 K, Liquid, Flow calorimetry

C=CC [propene] + COC
3000 kPa
Conditions	excess molar enthalpy [kcal/mol]
x1 = 0.0427	0.00574 ± 0.000239
x1 = 0.0861	0.0112 ± 0.000478
x1 = 0.1301	0.0155 ± 0.000478
x1 = 0.1748	0.0201 ± 0.000478
x1 = 0.2203	0.0241 ± 0.000478
x1 = 0.2664	0.028 ± 0.000478
x1 = 0.3133	0.0306 ± 0.000478
x1 = 0.361	0.0332 ± 0.000478
x1 = 0.4095	0.0354 ± 0.000717
x1 = 0.4587	0.0368 ± 0.000717
x1 = 0.5088	0.0373 ± 0.000717
x1 = 0.5597	0.037 ± 0.000717
x1 = 0.6115	0.0363 ± 0.000717
x1 = 0.6641	0.0347 ± 0.000717
x1 = 0.7177	0.0318 ± 0.000478
x1 = 0.7722	0.0277 ± 0.000478
x1 = 0.8277	0.0222 ± 0.000478
x1 = 0.8841	0.016 ± 0.000478
x1 = 0.9415	0.00789 ± 0.000239

COC [dimethyl ether] + CCC
3060 kPa
Conditions	excess molar enthalpy [kcal/mol]
x2 = 0.0397	0.022 ± 0.000478
x2 = 0.0803	0.0428 ± 0.000717
x2 = 0.1218	0.0629 ± 0.000956
x2 = 0.1643	0.0813 ± 0.000956
x2 = 0.2076	0.0978 ± 0.0012
x2 = 0.252	0.112 ± 0.00143
x2 = 0.2974	0.124 ± 0.00143
x2 = 0.3439	0.135 ± 0.00167
x2 = 0.3914	0.143 ± 0.00167
x2 = 0.4401	0.147 ± 0.00167
x2 = 0.49	0.15 ± 0.00167
x2 = 0.5411	0.149 ± 0.00167
x2 = 0.5935	0.145 ± 0.00167
x2 = 0.6472	0.137 ± 0.00167
x2 = 0.7023	0.126 ± 0.00143
x2 = 0.7587	0.109 ± 0.00143
x2 = 0.8167	0.088 ± 0.0012
x2 = 0.8762	0.0609 ± 0.000956
x2 = 0.9373	0.0299 ± 0.000478

From the NIST ThermoML archive (doi:10.1021/je0301242)
